From article PMC4303209, “A novel phosphatidylinositol 3-kinase (PI3K) inhibitor directs a potent FOXO-dependent, p53-independent cell cycle arrest phenotype characterized by the differential induction of a subset of FOXO-regulated genes” (Breast Cancer Research : BCR, 2014)

Test system: MCF-7 breast cancer cells
Test: Microarray gene expression analysis (Agilent whole human genome 4 x 44K; compound vs DMSO, LIMMA log2 fold change)
Type: cell-based
Conditions: cell cycle genes

## Cn1ncc2c(N3CCOCC3)nc(-c3cccc(O)c3)nc21 [ETP-45658]
Gene 10381
  TUBB3 log2FC: -0.638
Gene 10393
  ANAPC10 log2FC: 0.516
Gene 10397
  NDRG1 log2FC: 1.084
Gene 10399
  GNB2L1 log2FC: -0.052
Gene 10419
  PRMT5 log2FC: -0.043
Gene 10459
  MAD2L2 log2FC: -0.088
Gene 10460
  TACC3 log2FC: -0.430
Gene 10488
  CREB3 log2FC: -0.118
Gene 10514
  MYBBP1A log2FC: -0.538
Gene 10519
  CIB1 log2FC: -0.090
Gene 10534
  SSSCA1 log2FC: -0.330
Gene 10540
  DCTN2 log2FC: 0.043
Gene 10592
  SMC2 log2FC: 0.719
Gene 10595
  ERN2 log2FC: -0.829
Gene 10600
  USP16 log2FC: 0.971
Gene 10614
  HEXIM1 log2FC: -0.354
Gene 10615
  SPAG5 log2FC: 0.309
Gene 10617
  STAMBP log2FC: 0.425
Gene 10628
  TXNIP log2FC: 2.131
Gene 10630
  PDPN log2FC: -0.069
Gene 10636
  RGS14 log2FC: 0.556
Gene 10664
  CTCF log2FC: -0.082
Gene 10668
  CGRRF1 log2FC: 0.871
Gene 10669
  CGREF1 log2FC: -0.152
Gene 10713
  USP39 log2FC: 0.041
Gene 10726
  NUDC log2FC: -0.412
Gene 10733
  PLK4 log2FC: 0.611
Gene 10734
  STAG3 log2FC: 0.527
Gene 10735
  STAG2 log2FC: 1.297
Gene 10763
  NES log2FC: -0.458
Gene 10769
  PLK2 log2FC: -0.887
Gene 10783
  NEK6 log2FC: -0.620
Gene 10806
  SDCCAG8 log2FC: 0.654
Gene 10844
  TUBGCP2 log2FC: -0.131
Gene 10859
  LILRB1 log2FC: -0.164
Gene 10869
  USP19 log2FC: 0.174
Gene 10904
  BLCAP log2FC: -0.662
Gene 10907
  TXNL4A log2FC: -0.510
Gene 10910
  SUGT1 log2FC: 0.410
Gene 10912
  GADD45G log2FC: -0.067
Gene 10919
  EHMT2 log2FC: 0.089
Gene 10950
  BTG3 log2FC: -0.035
Gene 10982
  MAPRE2 log2FC: -0.284
Gene 11004
  KIF2C log2FC: 0.489
Gene 11011
  TLK2 log2FC: 0.607
Gene 11021
  RAB35 log2FC: -0.457
Gene 11022
  TDRKH log2FC: 0.089
Gene 11040
  PIM2 log2FC: -0.863
Gene 11065
  UBE2C log2FC: -0.393
Gene 11078
  TRIOBP log2FC: 0.398
Gene 11097
  NUPL2 log2FC: 0.144
Gene 11104
  KATNA1 log2FC: 0.716
Gene 11108
  PRDM4 log2FC: 0.462
Gene 11113
  CIT log2FC: 0.376
Gene 11130
  ZWINT log2FC: -0.088
Gene 11140
  CDC37 log2FC: -0.282
Gene 11178
  LZTS1 log2FC: -0.979
Gene 11180
  WDR6 log2FC: -0.468
Gene 11186
  RASSF1 log2FC: 1.482
Gene 11190
  CEP250 log2FC: -0.206
Gene 11243
  PMF1 log2FC: -0.207
Gene 11258
  DCTN3 log2FC: 0.235
Gene 11334
  TUSC2 log2FC: -0.766
Gene 11339
  OIP5 log2FC: 0.202
Gene 22919
  MAPRE1 log2FC: -0.363
Gene 22924
  MAPRE3 log2FC: 0.034
Gene 22954
  TRIM32 log2FC: -0.374
Gene 22974
  TPX2 log2FC: 0.049
Gene 22994
  AZI1 log2FC: 0.520
Gene 22995
  CEP152 log2FC: 0.685
Gene 23032
  USP33 log2FC: 1.045
Gene 23063
  WAPAL log2FC: 0.789
Gene 23087
  TRIM35 log2FC: 0.473
Gene 23122
  CLASP2 log2FC: 0.610
Gene 23126
  POGZ log2FC: 0.396
Gene 23133
  PHF8 log2FC: -0.483
Gene 23137
  SMC5 log2FC: -0.109
Gene 23194
  FBXL7 log2FC: -0.171
Gene 23198
  PSME4 log2FC: 0.174
Gene 23212
  RRS1 log2FC: -0.840
Gene 23225
  NUP210 log2FC: -0.548
Gene 23236
  PLCB1 log2FC: 1.212
Gene 23246
  BOP1 log2FC: -0.416
Gene 23279
  NUP160 log2FC: -0.451
Gene 23291
  FBXW11 log2FC: -0.357
Gene 23304
  UBR2 log2FC: 0.788
Gene 23326
  USP22 log2FC: 0.274
Gene 23332
  CLASP1 log2FC: -0.307
Gene 23368
  PPP1R13B log2FC: 0.098
Gene 23405
  DICER1 log2FC: -0.887
Gene 23411
  SIRT1 log2FC: 1.263
Gene 23421
  ITGB3BP log2FC: 0.773
Gene 23481
  PES1 log2FC: -0.445
Gene 23503
  ZFYVE26 log2FC: 0.361
Gene 23513
  SCRIB log2FC: -0.165
Gene 23582
  CCNDBP1 log2FC: 0.710
Gene 23607
  CD2AP log2FC: 0.637
Gene 23636
  NUP62 log2FC: -0.576
Gene 23637
  RABGAP1 log2FC: 0.485
Gene 23645
  PPP1R15A log2FC: 1.011
Gene 23649
  POLA2 log2FC: -0.863
Gene 24149
  ZNF318 log2FC: 0.346
Gene 25788
  RAD54B log2FC: 0.549
Gene 25836
  NIPBL log2FC: 0.842
Gene 25896
  INTS7 log2FC: 0.076
Gene 25909
  AHCTF1 log2FC: 0.469
Gene 25942
  SIN3A log2FC: 0.788
Gene 25970
  SH2B1 log2FC: -0.484
Gene 25975
  EGFL6 log2FC: 0.028
Gene 26054
  SENP6 log2FC: 0.596
Gene 26270
  FBXO6 log2FC: 0.322
Gene 26271
  FBXO5 log2FC: 0.498
Gene 26471
  NUPR1 log2FC: 0.023
Gene 26574
  AATF log2FC: -0.362
Gene 26586
  CKAP2 log2FC: 0.829
Gene 26959
  HBP1 log2FC: 3.023
Gene 27030
  MLH3 log2FC: 0.187
Gene 27085
  MTBP log2FC: 0.847
Gene 27134
  TJP3 log2FC: 0.162
Gene 27183
  VPS4A log2FC: -0.366
Gene 27250
  PDCD4 log2FC: 1.281
Gene 27301
  APEX2 log2FC: -0.875
Gene 27338
  UBE2S log2FC: -0.678
Gene 27436
  EML4 log2FC: -0.240
Gene 28227
  PPP2R3B log2FC: -0.106
Gene 28985
  MCTS1 log2FC: -0.243
Gene 28996
  HIPK2 log2FC: -0.166
Gene 29117
  BRD7 log2FC: 0.662
Gene 29127
  RACGAP1 log2FC: 0.627
Gene 29128
  UHRF1 log2FC: -0.406
Gene 29893
  PSMC3IP log2FC: 0.342
Gene 29899
  GPSM2 log2FC: 0.274
Gene 29901
  SAC3D1 log2FC: 0.069
Gene 29935
  RPA4 log2FC: -0.445
Gene 29945
  ANAPC4 log2FC: 0.654
Gene 29950
  SERTAD1 log2FC: -1.280
Gene 50624
  CUZD1 log2FC: 0.419
Gene 50855
  PARD6A log2FC: -0.204
Gene 51053
  GMNN log2FC: 0.163
Gene 51065
  RPS27L log2FC: 0.265
Gene 51085
  MLXIPL log2FC: 0.256
Gene 51119
  SBDS log2FC: 0.607
Gene 51143
  DYNC1LI1 log2FC: 0.709
Gene 51147
  ING4 log2FC: 1.465
Gene 51175
  TUBE1 log2FC: 0.231
Gene 51176
  LEF1 log2FC: -0.842
Gene 51191
  HERC5 log2FC: 0.711
Gene 51203
  NUSAP1 log2FC: 0.849
Gene 51207
  DUSP13 log2FC: -0.060
Gene 51322
  WAC log2FC: 0.945
Gene 51339
  DACT1 log2FC: 0.045
Gene 51343
  FZR1 log2FC: -0.538
Gene 51347
  TAOK3 log2FC: 1.243
Gene 51422
  PRKAG2 log2FC: -0.498
Gene 51429
  SNX9 log2FC: 0.822
Gene 51434
  ANAPC7 log2FC: -0.070
Gene 51451
  LCMT1 log2FC: -0.115
